Results taken from US20220007644A1, “COMPOSITIONS COMPRISING PYRIDINE CARBOXYLATE HERBICIDES WITH PHOTOSYSTEM II AND OPTIONAL HPPD INHIBITOR HERBICIDES” (Corteva Agriscience LLC, priority 2018, published 2022).

Experiments:
Type in all cases: in vivo
[1] = system: POLCO, Polygonum convolvulus (wild buckwheat); test: Greenhouse postemergence herbicidal effect (visual injury, 20-22 d)
Text: (§1) Greenhouse Trial Methodology—Evaluation of Postemergence Herbicidal Effect
(§2) Seeds of the desired test plant species were planted in a 90:10% v/v (volume/volume) mixture of PRO-MIX® BX (Premier Tech Horticulture, Quakertown, Pa., USA) and PROFILE®GREENS GRADE™ (Profile Products LLC, Buffalo Grove, Ill., USA) planting mixture, which typically has a pH of 5.2 to 6.2 and an organic matter content of at least 50 percent, in plastic pots with a surface area of 103.2 square centimeters (cm^2). In some aspects, to help ensure good germination and healthy plants, a fungicide treatment and/or other chemical or physical treatment was applied. The plants were grown for 7-36 days (d) in a greenhouse with an approximate 14-hour (h) photoperiod which was maintained at about 23° C. during the day and 22° C. during the night. Nutrients and water were added on a regular basis and supplemental lighting was provided with overhead metal halide 1000-Watt lamps as necessary. The plants were employed for testing when they reached the second or third true leaf stage.
(§3) Emulsifiable concentrates of each of each pyridine carboxylate herbicide (Compound A or Compound B) were prepared at 100 grams acid equivalent per liter (g ae/L). The emulsifiable concentrates also included a safener, cloquintocet-mexyl, at 120 grams active ingredient per liter (g ai/L), unless otherwise noted below. An aliquot of each emulsifiable concentrate was placed in a 25 mL glass vial and diluted with an aqueous mixture of 1.25% (v/v) ACTIROB® B esterified rapeseed oil (Bayer Crop Science, Research Triangle Park, N.C., USA) or MSO® Concentrate with LECI-TECH® methylated soybean oil (Loveland Products, Loveland, Colo., USA) to obtain concentrated stock solutions at the highest application rate for each herbicide, based upon a 12 milliliter (mL) application volume at a rate of 187 liters per hectare (L/ha). The concentrated stock solutions were further diluted with an aqueous mixture of 1.25% v/v ACTIROB® B or MSO® Concentrate with LECI-TECH® to obtain stock solutions at reduced application rates for each herbicide. Spray solutions of the herbicide combinations (Compound A or Compound B plus PS-II herbicide and optional HPPD herbicide) were prepared by adding weighed amounts or aliquots of the PS-II herbicide and optional HPPD herbicide to the stock solutions of Compound A or Compound B to form 12-mL spray solutions in two- or three-way combinations.
(§4) The spray solutions were applied to the plant material with an overhead Mandel track sprayer equipped with 8002E nozzles calibrated to deliver 187 L/ha over an application area of 0.503 square meters (m^2) at a spray height of 18 inches ([…] centimeters (cm)) above the average plant canopy. Control plants were sprayed in the same manner with the solvent blank. All pyridine carboxylate herbicide (component a) application rates are given as “g ae/ha” and all PS II inhibitor herbicide (component b) and HPPD inhibitor herbicide (component c) application rates are given as “g ai/ha.”
(§5) The treated plants and control plants were placed in a greenhouse as described above and watered by sub-irrigation to prevent wash-off of the test compounds. After 20-22 d, the condition of the test plants as compared with that of the control plants was determined visually and scored on a scale of 0 to 100 percent where 0 corresponds to no injury and 100 corresponds to complete kill.

[2] = system: BRSNW, Brassica napus (winter rape); test: as above
Text: as §1, §2, §3, §4, §5

[3] = system: SINAR, Sinapis arvensis (wild mustard); test: as above
Text: as §1, §2, §3, §4, §5

[4] = system: CIRAR, Cirsium arvense (Canada thistle); test: as above
Text: as §1, §2, §3, §4, §5

[5] = system: KCHSC, Kochia scoparia (kochia); test: as above
Text: as §1, §2, §3, §4, §5

[6] = system: CHEAL, Chenopodium album L. (common lambsquarters); test: as above
Text: as §1, §2, §3, §4, §5

[7] = system: AMARE, Amaranthus retroflexus (pigweed); test: as above
Text: as §1, §2, §3, §4, §5

[8] = system: SASKR, Salsola kali (Russian thistle); test: as above
Text: as §1, §2, §3, §4, §5

[9] = system: MATCH, Matricaria chamomilla (wild chamomile); test: as above
Text: as §1, §2, §3, §4, §5

[10] = system: TRZAS, Triticum aestivum (spring wheat); test: Greenhouse postemergence phytotoxicity on crop (visual injury, 20-22 d)
Text: as §1, §2, §3, §4, §5

[11] = system: HORVS, Hordeum vulgare (spring barley); test: as above
Text: as §1, §2, §3, §4, §5

[12] = system: BRSNN, Brassica napus (spring rape); test: Greenhouse postemergence herbicidal effect (visual injury, 20-22 d)
Text: as §1, §2, §3, §4, §5

[13] = system: ALOMY, Alopecurus myosuroides (blackgrass); test: as above; details: 450 g ai/ha alone
Text: as §1, §2, §3, §4, §5

[14] = system: AVEFA, Avena fatua (wild oat); test: as above; details: 450 g ai/ha alone
Text: as §1, §2, §3, §4, §5

[15] = system: VIOTR, Viola tricolor (wild pansy); test: as above; details: 450 g ai/ha alone
Text: as §1, §2, §3, §4, §5

[16] = system: ABUTH, Abutilon theophrasti (velvetleaf); test: as above; details: 5 g ai/ha alone
Text: as §1, §2, §3, §4, §5

[17] = system: IPOHE, Ipomoea hederacea (ivyleaf morningglory); test: as above; details: 5 g ai/ha alone
Text: as §1, §2, §3, §4, §5

[18] = system: GLXMA, Glycine max (soybean); test: as above; details: 5 g ai/ha alone
Text: as §1, §2, §3, §4, §5

[19] = system: SORVU, Sorghum vulgare (grain sorghum); test: as above; details: 5 g ai/ha alone
Text: as §1, §2, §3, §4, §5

[20] = Fallopia convolvulus, post-emergence, read-out: visual injury Obs

CN(C)C(=O)Nc1ccc(Cl)c(Cl)c1 [Diuron, 3-(3,4-dichlorophenyl)-1,1-dimethylurea]
pest or weed control at 220 g/ha [1, 20]: 5% | visual injury Obs ([2]; 220 g ai/ha alone): 5% | visual injury Obs ([3]; 220 g ai/ha alone): 5% | visual injury Obs ([4]; 220 g ai/ha alone): 40% | visual injury Obs ([5]; 220 g ai/ha alone): 90% | visual injury Obs ([6]; 220 g ai/ha alone): 100% | visual injury Obs ([7]; 220 g ai/ha alone): 98% | visual injury Obs ([8]; 220 g ai/ha alone): 40% | visual injury Obs ([9]; 220 g ai/ha alone): 15% | visual injury Obs ([10]; 220 g ai/ha alone): 0% | visual injury Obs ([11]; 220 g ai/ha alone): 10%

CC(C)N1C(=O)c2ccccc2NS1(=O)=O [Bentazone, 3-isopropyl-1H-2,1,3-benzothiadiazin-4(3H)-one 2,2-dioxide]
pest or weed control at 51.5 g/ha ([1]; Fallopia convolvulus, post-emergence, 51.5 g ai/ha alone, read-out: visual injury Obs): 20% | visual injury Obs ([12]; 51.5 g ai/ha alone): 30% | visual injury Obs ([10]; 51.5 g ai/ha alone): 0% | visual injury Obs ([11]; 51.5 g ai/ha alone): 0%

CCC(C)n1c(=O)[nH]c(C)c(Br)c1=O (stereo not shown) [Bromacil, 5-bromo-3-sec-butyl-6-methyluracil]
pest or weed control at 900 g/ha [1, 20]: 10% | visual injury Obs ([2]; 900 g ai/ha alone): 5% | visual injury Obs ([3]; 900 g ai/ha alone): 35% | visual injury Obs ([4]; 900 g ai/ha alone): 18% | visual injury Obs ([5]; 900 g ai/ha alone): 91% | visual injury Obs ([6]; 900 g ai/ha alone): 53% | visual injury Obs ([7]; 900 g ai/ha alone): 20% | visual injury Obs ([8]; 900 g ai/ha alone): 25% | visual injury Obs ([9]; 900 g ai/ha alone): 5% | visual injury Obs ([10]; 900 g ai/ha alone): 0% | visual injury Obs ([11]; 900 g ai/ha alone): 10%

CCNc1nc(Cl)nc(NC(C)C)n1 [Atrazine, 6-chloro-N^2-ethyl-N^4-isopropyl-1,3,5-triazine-2,4-diamine, reference compound]
visual injury Obs [13]: 25% | visual injury Obs ([12]; 450 g ai/ha alone): 28% | visual injury Obs [14]: 13% | visual injury Obs [15]: 20%

CCCCCCCCSC(=O)Oc1cc(Cl)nnc1-c1ccccc1 [Pyridate, O-6-chloro-3-phenylpyridazin-4-yl S-octyl thiocarbonate]
pest or weed control at 125 g/ha ([1]; Fallopia convolvulus, post-emergence, 125 g ai/ha alone, read-out: visual injury Obs): 0% | visual injury Obs ([3]; 125 g ai/ha alone): 0% | visual injury Obs ([5]; 125 g ai/ha alone): 0% | visual injury Obs ([12]; 125 g ai/ha alone): 15% | visual injury Obs ([6]; 125 g ai/ha alone): 0% | visual injury Obs ([8]; 125 g ai/ha alone): 0% | visual injury Obs ([10]; 125 g ai/ha alone): 0% | visual injury Obs ([11]; 125 g ai/ha alone): 5%

CC(C)c1nn(C(=O)NC(C)(C)C)c(=O)n1N [Amicarbazone, 4-amino-N-tert-butyl-4,5-dihydro-3-isopropyl-5-oxo-1H-1,2,4-triazole-1-carboxamide]
pest or weed control at 175 g/ha ([1]; Fallopia convolvulus, post-emergence, 175 g ai/ha alone, read-out: visual injury Obs): 10% | visual injury Obs ([3]; 175 g ai/ha alone): 25% | visual injury Obs ([5]; 175 g ai/ha alone): 25% | visual injury Obs ([12]; 175 g ai/ha alone): 38% | visual injury Obs ([6]; 175 g ai/ha alone): 38% | visual injury Obs ([8]; 175 g ai/ha alone): 0%

CSc1nnc(C(C)(C)C)c(=O)n1N [Metribuzin, 4-amino-6-tert-butyl-3-methythio-1,2,4-triazin-5(4H)-one]
visual injury ([1]; 25 g ai/ha alone): 0% | visual injury ([2]; 25 g ai/ha alone): 0% | visual injury ([3]; 25 g ai/ha alone): 18% | visual injury ([4]; 25 g ai/ha alone): 3% | visual injury ([5]; 25 g ai/ha alone): 0% | visual injury ([6]; 25 g ai/ha alone): 3% | visual injury ([7]; 25 g ai/ha alone): 0% | visual injury ([8]; 25 g ai/ha alone): 0% | visual injury ([9]; 25 g ai/ha alone): 0% | visual injury ([10]; 25 g ai/ha alone): 0% | visual injury ([11]; 25 g ai/ha alone): 0%

CNC(=O)N(C)c1nnc(C(C)(C)C)s1 [Tebuthiuron, 1-(5-tert-butyl-1,3,4-thiadiazol-2-yl)-1,3-dimethylurea, reference compound]
pest or weed control at 280 g/ha [1, 20]: 40% | visual injury Obs ([2]; 280 g ai/ha alone): 45% | visual injury Obs ([3]; 280 g ai/ha alone): 35% | visual injury Obs ([4]; 280 g ai/ha alone): 40% | visual injury Obs ([5]; 280 g ai/ha alone): 23% | visual injury Obs ([6]; 280 g ai/ha alone): 98% | visual injury Obs ([7]; 280 g ai/ha alone): 88% | visual injury Obs ([9]; 280 g ai/ha alone): 25% | visual injury Obs ([10]; 280 g ai/ha alone): 0% | visual injury Obs ([11]; 280 g ai/ha alone): 28%

CCOC(=O)Nc1cccc(OC(=O)Nc2ccccc2)c1 [Desmedipham, 3-ethoxycarbonylaminophenyl phenylcarbamate]
pest or weed control at 162.5 g/ha [1, 20]: 0% | visual injury Obs ([2]; 162.5 g ai/ha alone): 0% | visual injury Obs ([3]; 162.5 g ai/ha alone): 0% | visual injury Obs ([4]; 162.5 g ai/ha alone): 10% | visual injury Obs ([5]; 162.5 g ai/ha alone): 0% | visual injury Obs ([6]; 162.5 g ai/ha alone): 0% | visual injury Obs ([7]; 162.5 g ai/ha alone): 15% | visual injury Obs ([8]; 162.5 g ai/ha alone): 0% | visual injury Obs ([9]; 162.5 g ai/ha alone): 0% | visual injury Obs ([10]; 162.5 g ai/ha alone): 0% | visual injury Obs ([11]; 162.5 g ai/ha alone): 0%

CCC(=O)Nc1ccc(Cl)c(Cl)c1 [Propanil, 3′,4′-dichloropropionanilide, reference compound]
pest or weed control at 5 g/ha ([1]; Fallopia convolvulus, post-emergence, 5 g ai/ha alone, read-out: visual injury Obs): 20% | visual injury Obs [16]: 10% | visual injury Obs ([4]; 5 g ai/ha alone): 28% | visual injury Obs [17]: 38% | visual injury Obs [18]: 23% | visual injury Obs [19]: 15%
